Experimental data taken from US9108926B2, “Disubstituted 5-fluoro-pyrimidines” (Bayer Intellectual Property GmbH, priority 2011, dated 2015).

Columns and labels:
HeLa cells = assay: Proliferation assay, HeLa; format: cell-based; details: Homo sapiens, 96 h, 4 days, crystal violet, read-out: Inhibition of HeLa cell proliferation IC50
Experimental: (§1) After 24 hours, the cells of one plate (zero-point plate) were stained with crystal violet (see below), while the medium of the other plates was replaced by fresh culture medium (200 μl), to which the test substances were added in various concentrations (0 μM, as well as in the range of 0.001-10 μM; the final concentration of the solvent dimethyl sulfoxide was 0.5%). The cells were incubated for 4 days in the presence of test substances. Cell proliferation was determined by staining the cells with crystal violet: the cells were fixed by adding 20 μl/measuring point of an 11% glutaric aldehyde solution for 15 minutes at room temperature. After three washing cycles of the fixed cells with water, the plates were dried at room temperature. The cells were stained by adding 100 μl/measuring point of a 0.1% crystal violet solution (pH 3.0). After three washing cycles of the stained cells with water, the plates were dried at room temperature. The dye was dissolved by adding 100 μl/measuring point of a 10% acetic acid solution. […] The change of cell number, in percent, was calculated by normalization of the measured values to the extinction values of the zero-point plate (=0%) and the extinction of the untreated (0 μm) cells (=100%).

HeLa-MaTu-ADR cells = assay: Proliferation assay, HeLa-MaTu-ADR; format: cell-based; details: Homo sapiens, 96 h; HeLa-MaTu-ADR, 4 days, crystal violet; read-out: Inhibition of HeLa-MaTu-ADR cell proliferation IC50
Experimental: as §1

NCI-H460 cells = assay: Proliferation assay, NCI-H460; format: cell-based; details: Homo sapiens, 96 h; NCI-H460, 4 days, crystal violet; read-out: Inhibition of NCI-H460 cell proliferation IC50
Experimental: as §1

DU145 cells = assay: Proliferation assay, DU145; format: cell-based; details: Homo sapiens, DU-145, 96 h; DU145, 4 days, crystal violet; read-out: Inhibition of DU145 cell proliferation IC50
Experimental: as §1

Caco-2 cells = assay: Proliferation assay, Caco-2; format: cell-based; details: Homo sapiens, 96 h; Caco-2, 4 days, crystal violet; read-out: Inhibition of Caco-2 cell proliferation IC50
Experimental: as §1

B16F10 cells = assay: Proliferation assay, B16F10; format: cell-based; details: Mus musculus, B16-F10, 96 h; B16F10, 4 days, crystal violet; read-out: Inhibition of B16F10 cell proliferation IC50
Experimental: as §1

A2780 cells = assay: Proliferation assay, A2780; format: cell-based; details: Homo sapiens, 96 h; A2780, 4 days, crystal violet; read-out: Inhibition of A2780 cell proliferation IC50
Experimental: Cultivated tumour cells (HeLa, human cervical tumour cells, ATCC CCL-2; NCI-H460, human non-small cell lung carcinoma cells, ATCC HTB-177; A2780, human ovarian carcinoma cells, ECACC #93112519; DU 145, hormone-independent human prostate carcinoma cells, ATCC HTB-81; HeLa-MaTu-ADR, multidrug-resistant human cervical carcinoma cells, EPO-GmbH Berlin; Caco-2, human colorectal carcinoma cells, ATCC HTB-37; B16F10, mouse melanoma cells, ATCC CRL-6475) were plated at a density of 5,000 cells/well (DU145, HeLa-MaTu-ADR), 3,000 cells/well (NCI-H460, HeLa), 2,500 cells/well (A2780), 1,500 cells/well (Caco-2), or 1,000 cells/well (B16F10) in a 96-well multititer plate in 200 μL of their respective growth medium supplemented 10% fetal calf serum. […] Cell proliferation was determined by staining the cells with crystal violet: the cells were fixed by adding 20 μl/measuring point of an 11% glutaric aldehyde solution for 15 minutes at room temperature. […] The extinction was determined by photometry at a wavelength of 595 nm. The change of cell number, in percent, was calculated by normalization of the measured values to the extinction values of the zero-point plate (=0%) and the extinction of the untreated (0 μm) cells (=100%).

Caco-2 permeation assay = format: in vitro ADME; details: human, pH 7.2, Caco-2, test compound 2 μM
Experimental: 4. Caco-2 Permeation Assay:
Caco-2 cells (purchased from DSMZ Braunschweig, Germany) were seeded at a density of 4.5×10^4 cells per well on 24 well insert plates, 0.4 μm pore size, and grown for 15 days in DMEM medium supplemented with 10% fetal bovine serum, 1% GlutaMAX (100×, GIBCO), 100 U/mL penicillin, 100 μg/mL streptomycin (GIBCO) and 1% non essential amino acids (100×). Cells were maintained at 37° C. in a humified 5% CO2 atmosphere. Medium was changed every 2-3 day. Before running the permeation assay, the culture medium was replaced by a FCS-free hepes-carbonate transport buffer (pH 7.2). For assessment of monolayer integrity the transepithelial electrical resistance (TEER) was measured. Test compounds were predissolved in DMSO and added either to the apical or basolateral compartment in final concentration of 2 μM in transport buffer. Before and after 2 h incubation at 37° C. samples were taken from both compartments. Analysis of compound content was done after precipitation with methanol by LC/MS/MS analysis. Permeability (Papp) was calculated in the apical to basolateral (A→B) and basolateral to apical (B→A) directions. […] The efflux ratio basolateral (B) to apical (A) was calculated by dividing the Papp B−A by the Papp A−B. In addition the compound recovery was calculated. The following reference compounds were used for the classification of the permeability class: Antipyrine, Pyrazosin, Verapamil, Fluvastatin, Cimetidine, Ranitidine, Atenolol, Sulfasalazine.

CDK2/CycE = CDK2/CycE (Homo sapiens, UniProt P24941); assay: CDK2/CycE kinase assay (TR-FRET, Method 2)
Description: CDK2/CycE-inhibitory activity of compounds of the present invention was quantified employing the CDK2/CycE TR-FRET assay as described in the following paragraphs:
Recombinant fusion proteins of GST and human CDK2 and of GST and human CycE, expressed in insect cells (Sf9) and purified by Glutathion-Sepharose affinity chromatography, were purchased from ProQinase GmbH (Freiburg, Germany). As substrate for the kinase reaction biotinylated peptide biotin-Ttds-[sequence] (C-terminus in amid form) was used which can be purchased e.g. form the company JERINI Peptide Technologies (Berlin, Germany).
For the assay 50 nl of a 100 fold concentrated solution of the test compound in DMSO was pipetted into a black low volume 384 well microtiter plate (Greiner Bio-One, Frickenhausen, Germany), 2 μl of a solution of CDK2/CycE in aqueous assay buffer [50 mM Tris/HCl pH 8.0, 10 mM MgCl2, 1.0 mM dithiothreitol, 0.1 mM sodium ortho-vanadate, 0.01% (v/v) Nonidet-P40 (Sigma)] were added and the mixture was incubated for 15 min at 22° C. to allow pre-binding of the test compounds to the enzyme before the start of the kinase reaction. Then the kinase reaction was started by the addition of 3 μl of a solution of adenosine-tri-phosphate (ATP, 16.7 μM=>final conc. in the 5 μl assay volume is 10 μM) and substrate (1.25 μM=>final conc. in the 5 μl assay volume is 0.75 μM) in assay buffer and the resulting mixture was incubated for a reaction time of 25 min at 22° C. The concentration of CDK2/CycE was adjusted depending of the activity of the enzyme lot and was chosen appropriate to have the assay in the linear range, typical concentrations were in the range of 130 ng/mL. The reaction was stopped by the addition of 5 μl of a solution of TR-FRET detection reagents (0.2 μM streptavidine-XL665 [Cisbio Bioassays, Codolet, France] and 1 nM anti-RB(pSer807/pSer811)-antibody from BD Pharmingen [#558389] and 1.2 nM LANCE EU-W1024 labeled anti-mouse IgG antibody [Perkin-Elmer, product no. AD0077]) in an aqueous EDTA-solution (100 mM EDTA, 0.2% (w/v) bovine serum albumin in 100 mM HEPES/NaOH pH 7.0).
The resulting mixture was incubated 1 h at 22° C. to allow the formation of complex between the phosphorylated biotinylated peptide and the detection reagents. Subsequently the amount of phosphorylated substrate was evaluated by measurement of the resonance energy transfer from the Eu-chelate to the streptavidine-XL. Therefore, the fluorescence emissions at 620 nm and 665 nm after excitation at 350 nm was measured in a TR-FRET reader, e.g. a Rubystar (BMG Labtechnologies, Offenburg, Germany) or a Viewlux (Perkin-Elmer). The ratio of the emissions at 665 nm and at 622 nm was taken as the measure for the amount of phosphorylated substrate.

IC50 (HeLa cells): 0.11 µM
IC50 (HeLa-MaTu-ADR cells): 0.12 µM
IC50 (NCI-H460 cells): 0.36 µM
IC50 (DU145 cells): 0.31 µM
IC50 (Caco-2 cells): 0.38 µM
IC50 (B16F10 cells): 0.36 µM
IC50 (A2780 cells): 0.11 µM
Papp A→B at 2 h, 2 μM (Caco-2 permeation assay; apical to basolateral, read-out: Papp A-B (Mari)): 97 nm/s
Papp B→A at 2 h, 2 μM (Caco-2 permeation assay; basolateral to apical, read-out: Papp B-A (Mari)): 31 nm/s
IC50 (CDK2/CycE): 0.2 µM
SMILES: COc1cc(F)ccc1-c1nc(Nc2cc(F)cc(CS(C)(=O)=O)c2)ncc1F [Example 12, 5-Fluoro-4-(4-fluoro-2-methoxyphenyl)-N-{3-fluoro-5-[(methylsulfonyl)methyl]phenyl}pyrimidin-2-amine]
